Patent US20260133203A1, “DETECTION OF FUMARATE-DERIVED MODIFICATION IN A TEST SAMPLE” (UNIVERSITY OF SOUTH CAROLINA, priority 2017, published 2026)
Counter-ions that a name gives are not always drawn.

Test system: N1E-115 neurons
Experiment: LC-MS/MS identification of succinated proteins in N1E-115 neurons
Assay type: cell-based, mouse
Conditions: DMF-treated N1E-115 neurons
Procedure: N1E-115 cells (subclone N1E-115-1 neuroblastoma cells) were obtained from Sigma (08062511, St. Louis, MO). The cells were grown and expanded in non-differentiation medium (NDM): 90% DMEM (GibcoTM, Grand Island, NY) with 25 mM glucose, no pyruvate, 25 mM HEPES, 4 mM glutamine and 10% fetal bovine serum (FBS, Atlanta Biologicals, Atlanta, GA). At 80% confluence, the cells were differentiated into neurons in the presence of 2% FBS and 1.25% dimethyl sulfoxide in DMEM for 5 days. In addition to the assessment of the neuronal phenotype by light microscopy, the detection of synaptophysin protein levels was used to confirm successful differentiation. […] After gel extraction, the peptides were re-suspended in 1% acetic acid and analyzed on a DionexTM […] system (Thermo ScientificTM, Rockford, IL) coupled to an Orbitrap Velos ProTM mass spectrometer (Thermo ScientificTM, Rockford, IL). […] The data-dependent acquisition (DDA) data were analyzed using Proteome DiscovererTM 1.4 software with SEQUEST search engine against the uniprot_ref_mouse database (2014-10-03 version, 52,474 proteins) or uniprot_ref_rat database (2011-5-11 version, 39765 proteins) with Xcorr>1 validation (+2) and an allowance for 2 missed cleavages. […]

Structure (SMILES): COC(=O)/C=C/C(=O)OC [DMF, dimethyl fumarate]
- number of protein subunits modified by either DMF or MMF: 15
